Source: PMC7377239, “Cardiovascular Effects of Polychlorinated Biphenyls and Their Major Metabolites” (Environmental Health Perspectives, 2020)
Like-named read-outs stand apart in the source and are kept apart here.

How the values were obtained:
[1] = system: iCell cardiomyocytes (human iPSC-derived cardiomyocytes); test: High-content imaging of cytotoxicity and mitochondrial integrity in iPSC-CMs; assay type: cell-based; conditions: Homo sapiens, Cardiomyocyte, cardiomyocytes (cm)
In short: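 This assay measured cytotoxicity and mitochondrial integrity in iPSC cardiomyocytes held in 40μL maintenance medium. After compound exposure, a 2× staining solution with Hoechst 33342 (4μg/mL) and MitoTracker™ Orange (0.4μM) was applied for 15 min at 37°C. Cells were washed, fixed with 3.7% formaldehyde, imaged on DAPI and Cy3 channels, and scored in MetaXpress®.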

[2] = system: HUVECs; test: High-content imaging cytotoxicity in HUVECs, 24 h; assay type: cell-based, human; conditions: Homo sapiens, HUVEC, 24 h, HUVEC, 24 hr
In short: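 Read-out: multiwavelength high-content imaging of Hoechst 33342, MitoTracker Orange and calcein AM after 24 h compound exposure of confluent HUVEC monolayers. POD values were set using a one-SD cutoff from vehicle (0.5% DMSO) means; with no concentration–response, 100μM was assigned as no observable adverse effect level.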

[3] = 1.5 h, cam, 90 min, read-out: POD cm.cam.90min
[4] = 1.5 h, mii, 90 min, read-out: POD cm.mii.90min
[5] = 1.5 h, mito, 90 min, read-out: POD cm.mito.90min
[6] = 1.5 h, tc, 90 min, read-out: POD cm.tc.90min
[7] = 24 h, cam, 24 hrs, read-out: POD cm.cam.24hrs
[8] = 24 h, mii, 24 hrs, read-out: POD cm.mii.24hrs
[9] = 24 h, mito, 24 hrs, read-out: POD cm.mito.24hrs
[10] = 24 h, tc, 24 hrs, read-out: POD cm.tc.24hrs
[11] = cyto, read-out: POD huvec.cyto.24hr
[12] = mito, read-out: POD huvec.mito.24hr
[13] = mitoint, read-out: POD huvec.mitoint.24hr
[14] = nma, read-out: POD huvec.nma.24hr
[15] = tc, read-out: POD huvec.tc.24hr

SMILES	minimal effective concentration [1, 3] [µM]	minimal effective concentration [1, 4] [µM]	minimal effective concentration [1, 5] [µM]	minimal effective concentration [1, 6] [µM]	minimal effective concentration [1, 7] [µM]	minimal effective concentration [1, 8] [µM]	minimal effective concentration [1, 9] [µM]	minimal effective concentration [1, 10] [µM]	minimal effective concentration [2, 11] [µM]	minimal effective concentration [2, 12] [µM]	minimal effective concentration [2, 13] [µM]	minimal effective concentration [2, 14] [µM]	minimal effective concentration [2, 15] [µM]
Oc1ccc(-c2cccc(Cl)c2)cc1Cl [4-OH-PCB 11]	27.7	32.7	40.1	36.2	8.57	43.2	7.94	8.62	1.37	1.2	5.43	0.99	1.37
Oc1cc(Cl)c(-c2cc(Cl)ccc2Cl)cc1Cl [4-OH-PCB 52]	8.86	45.7	8.61	8.75	32.7	65.1	36.7	41.4	1	1.1	2.32	100	1
